Patent US10154684B2, “Hair regrowth and growth promoter and use thereof” (PHARMA FOODS INTERNATIONAL CO., LTD., priority 2014, dated 2018)

Tested on: C57BL/6 (female) mice
Assay: Assessment of hair growth-promoting effect on androgen-induced telogen in C57BL/6 mice
Format: in vivo, mouse
Conditions: DHT 2 mg/mL, 100 μL subcutaneously every other day, casein-containing feed, Day 14, vs no DHT
Experimental: C57BL/6 (female) mice available from Charles River Laboratories Japan, Inc. were used for the test. The animals were randomly divided into test groups so that the mean body weight was approximately equal between groups. The mice were housed three per cage at room temperature (25° C.) under a 12-hour light-dark cycle.
The mice at six weeks old purchased from the vendor were preliminarily bred for one week for acclimation to the test environment. A commercially available hair removal cream was applied to the dorsal region of the mice at an age of seven weeks old to remove the hair.
Until the start of the test, the mice were fed with free access to a solid CRF-1 feed (Oriental Yeast Co., Ltd.) and tap water as drinking water.
The hair of the 7-week-old C57BL/6 mice was in the telogen phase of the hair cycle, but due to the stimulation of hair removal, the hair gradually entered into the anagen phase. This transition in the hair cycle was hampered by administration of an androgen after the hair removal. […] From two days after the hair removal, the mixed feeds indicated in Table 5 were given with free access thereto.
On the final observation day (Day 14 of administration), the mice in the test and control groups were anesthetized and fixed on a photography table, and the hair removal region was photographed.

Structure (SMILES): C[C@]12CCC(=O)C[C@@H]1CC[C@@H]1[C@@H]2CC[C@]2(C)[C@@H](O)CC[C@@H]12 [DHT, dihydrotestosterone]
- Blackening of the dorsal skin after hair removal: inhibited
